Laboratory results: ChEMBL document CHEMBL3112529, “Synthesis of a C-phosphonate mimic of maltose-1-phosphate and inhibition studies on Mycobacterium tuberculosis GlgE” (Bioorg Med Chem, 2014)

Target: T1, Alpha-1,4-glucan:maltose-1-phosphate maltosyltransferase (Mycobacterium tuberculosis (strain ATCC 25618 / H37Rv), UniProt P9WQ17)
T1 sequence (P9WQ17 whole entry): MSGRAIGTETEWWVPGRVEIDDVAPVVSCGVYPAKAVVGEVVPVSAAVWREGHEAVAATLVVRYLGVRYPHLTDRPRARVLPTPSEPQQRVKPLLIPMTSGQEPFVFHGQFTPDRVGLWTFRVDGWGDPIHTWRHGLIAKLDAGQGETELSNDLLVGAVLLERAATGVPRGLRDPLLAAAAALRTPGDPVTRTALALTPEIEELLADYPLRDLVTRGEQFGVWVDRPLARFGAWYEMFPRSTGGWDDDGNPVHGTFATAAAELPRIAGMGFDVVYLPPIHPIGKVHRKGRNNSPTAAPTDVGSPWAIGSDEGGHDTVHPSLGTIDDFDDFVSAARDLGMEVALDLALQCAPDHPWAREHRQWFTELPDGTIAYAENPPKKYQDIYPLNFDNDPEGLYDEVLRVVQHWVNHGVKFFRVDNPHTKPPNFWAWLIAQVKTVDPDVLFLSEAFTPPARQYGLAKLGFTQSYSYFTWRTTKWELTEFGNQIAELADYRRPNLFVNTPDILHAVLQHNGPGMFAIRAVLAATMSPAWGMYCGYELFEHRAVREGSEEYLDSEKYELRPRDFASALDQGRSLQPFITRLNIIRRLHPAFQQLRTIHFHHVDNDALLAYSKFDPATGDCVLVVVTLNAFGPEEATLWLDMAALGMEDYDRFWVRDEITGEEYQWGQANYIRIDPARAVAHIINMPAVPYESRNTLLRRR
Experiment: Inhibition of recombinant Mycobacterium tuberculosis H37Rv GlgE expressed in Escherichia coli BL21 (DE3) rosetta cells using maltose-1-phosphate as substrate measured every 5 secs for 30 mins by purine nucleoside phosphorylase-coupled assay

SMILES: O=P(O)(O)C[C@H]1O[C@H](CO)[C@@H](O[C@H]2O[C@H](CO)[C@@H](O)[C@H](O)[C@H]2O)[C@H](O)[C@H]1O
- IC50: 230 µM
